Laboratory results published in patent publication US7741496B2, “Ascorbic acid derivatives” (Corum Inc., priority 2008, dated 2010).

Experiment: Thermal Stability Test
Type: physicochemical
Settings: 45° C. oven for 21 days; compared with ascorbic acid (FIG. 4)
Method: FIG. 4 is a diagram of Thermal Stability Test observed at 45° C. oven for 21 days.
Competitive with 3-O-ethyl-ascorbic acid and Azelaic acid, inventive samples have best effect in tyrsoinase inhibition.

Structure (SMILES): CCOC1=C(O)C(=O)O[C@@H]1[C@@H](O)COC(=O)CCCCCCCC(=O)O [Formula (IV), 3-O-ethyl-ascorbyl-6-nonanedioate]
- thermal stability: stable than ascorbic acid
